The text below walks through data of US11254686B1 (Corvus Pharmaceuticals, Inc., priority 2017, dated 2022).

In one data set the target is adenosine A2B receptor (Homo sapiens (Human), UniProt P29275). Nature of the data set: Adenosine receptor activity assay (Table 1), A2B activity. Type of data set: biochemical. As to conditions: for Ratio: A2A activity to A2B activity (A2A/A2B); for pIC50: read-out: Ave A2B cAMP IC50.
The target of the next data set is adenosine A3 receptor (Homo sapiens (Human), UniProt P0DMS8). Nature of the data set: Adenosine receptor activity assay (Table 1), A3 cAMP. Type of data set: cell-based.
Sequence of adenosine A3 receptor (P0DMS8 whole entry, canonical isoform): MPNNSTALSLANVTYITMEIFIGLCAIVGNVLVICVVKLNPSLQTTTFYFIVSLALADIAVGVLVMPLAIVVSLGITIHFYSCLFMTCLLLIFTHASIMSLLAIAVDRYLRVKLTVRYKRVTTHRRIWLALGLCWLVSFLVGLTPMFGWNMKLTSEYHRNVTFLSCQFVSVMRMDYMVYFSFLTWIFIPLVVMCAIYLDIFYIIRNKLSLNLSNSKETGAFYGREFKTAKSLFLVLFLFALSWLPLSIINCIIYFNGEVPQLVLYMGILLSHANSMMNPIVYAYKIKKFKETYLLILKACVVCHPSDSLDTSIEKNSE
The subject of data set [1] is CYP 450 (isoform not given). Briefly: CYP450 inhibition at 10 μM. The format is in vitro ADME. As to conditions: read-out: CYP 450 % INH @ 10 μM.
Another data set addresses adenosine A1 receptor (Homo sapiens (Human), UniProt P30542). Nature of the data set: Adenosine receptor activity assay (Table 1), A1 cAMP. Type of data set: cell-based.
The target of a further data set is adenosine A2A receptor (Homo sapiens (Human), UniProt P29274). Nature of the data set: Adenosine receptor activity assay (Table 1), A2A activity. The format is biochemical. As to conditions: read-out: Ave A2A cAMP IC50.
Sequence of adenosine A2A receptor (P29274 whole entry): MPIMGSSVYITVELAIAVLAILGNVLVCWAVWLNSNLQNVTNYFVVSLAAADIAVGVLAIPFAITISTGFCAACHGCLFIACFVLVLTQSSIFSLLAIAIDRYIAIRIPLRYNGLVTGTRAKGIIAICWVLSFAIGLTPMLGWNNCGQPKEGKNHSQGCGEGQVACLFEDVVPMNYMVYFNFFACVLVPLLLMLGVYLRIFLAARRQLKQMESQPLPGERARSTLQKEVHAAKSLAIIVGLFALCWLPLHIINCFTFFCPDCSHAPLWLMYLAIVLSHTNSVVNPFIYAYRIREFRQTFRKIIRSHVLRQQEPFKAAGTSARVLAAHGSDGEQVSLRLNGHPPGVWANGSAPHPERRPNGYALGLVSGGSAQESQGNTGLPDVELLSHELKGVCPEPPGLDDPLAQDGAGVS
The nature of data set [2]: Hepatocyte intrinsic clearance, rat. The format is in vitro ADME. The settings on record: hepatocytes.
The nature of data set [3]: Hepatocyte intrinsic clearance, human. The format is in vitro ADME. The settings on record: hepatocytes.

The structures appear in SMILES notation. pIC50: −log10 of the molar value.

Sequence of adenosine A2B receptor (P29275 whole entry): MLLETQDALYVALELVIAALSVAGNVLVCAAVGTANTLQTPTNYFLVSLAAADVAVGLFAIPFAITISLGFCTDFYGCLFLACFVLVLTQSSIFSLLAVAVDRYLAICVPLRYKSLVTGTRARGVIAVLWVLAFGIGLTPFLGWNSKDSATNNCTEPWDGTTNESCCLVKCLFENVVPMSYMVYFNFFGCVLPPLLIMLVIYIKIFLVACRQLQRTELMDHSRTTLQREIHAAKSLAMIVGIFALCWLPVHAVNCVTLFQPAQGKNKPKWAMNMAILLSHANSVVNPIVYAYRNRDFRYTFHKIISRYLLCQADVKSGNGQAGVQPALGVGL
Sequence of adenosine A1 receptor (P30542 whole entry): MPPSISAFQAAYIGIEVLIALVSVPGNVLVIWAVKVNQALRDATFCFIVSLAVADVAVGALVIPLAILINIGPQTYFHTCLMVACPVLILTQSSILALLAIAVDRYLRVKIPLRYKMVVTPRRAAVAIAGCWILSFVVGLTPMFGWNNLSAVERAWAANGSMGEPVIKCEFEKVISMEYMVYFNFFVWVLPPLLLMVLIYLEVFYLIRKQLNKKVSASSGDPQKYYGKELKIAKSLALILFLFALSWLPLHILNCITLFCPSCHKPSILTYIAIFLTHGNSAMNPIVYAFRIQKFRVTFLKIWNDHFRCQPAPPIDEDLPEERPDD

A word on the pIC50: it is −log10 of the IC50, conventionally taken in molar units. Take `CO[C@H]1CCN(C(=O)c2nc(N[C@@H](C)c3cncc(F)c3)nc3ccsc23)C1` [Example Z252, (2-(((S)-1-(5-Fluoropyridin-3-yl)ethyl)amino)thieno[3,2-d]pyrimidin-4-yl)((S)-3-methoxypyrrolidin-1-yl)methanone]: on adenosine A2B receptor, the Ratio worked out at 19.78. Further, the pIC50 at adenosine A2B receptor was 7.30 to 8.00; against adenosine A3 receptor, below 6.30; against adenosine A1 receptor, below 6.30; on adenosine A2A receptor it was 6.30 to 7.00. The inhibition at 10 µM in data set [1] was 55.9%.

In general, hepatocyte CLint refers to the capacity of the preparation to metabolise the compound, expressed as a volume cleared per time. For the compound `Cc1cc2nc(N[C@@H](C)c3cccnc3)nc(C(=O)N3CCC3)c2s1` [Example Z283, (S)-Azetidin-1-yl(6-methyl-2-((1-(pyridin-3-yl)ethyl)amino)thieno[3,2-d]pyrimidin-4-yl)methanone], the Ratio on adenosine A2B receptor came out at 54.37. Besides, the pIC50 on adenosine A2B receptor was above 8.00; at adenosine A3 receptor, below 6.30; at adenosine A1 receptor it was below 6.30; at adenosine A2A receptor, 6.30 to 7.00. For the same compound, the inhibition at 10 µM in data set [1] came to 80.5%. Besides, the hepatocyte CLint came out at 42.7 µL/min/1e6 cells in data set [2] and 26.5 µL/min/1e6 cells in data set [3].

Turning to `CNc1cc2nc(N[C@@H](C)c3cncc(F)c3)nc(C(=O)N3CCCC3)c2s1` [Example Z210, (S)-(2-((1-(5-Fluoropyridin-3-yl)ethyl)amino)-6-(methylamino)thieno[3,2-d]pyrimidin-4-yl)(pyrrolidin-1-yl)methanone], the Ratio on adenosine A2B receptor is 162.88. In addition, the pIC50 on adenosine A2B receptor is above 8.00; against adenosine A3 receptor, 7.00 to 7.30; against adenosine A1 receptor, below 6.30; on adenosine A2A receptor, 6.30 to 7.00. The inhibition at 10 µM in data set [1] was 46%. Moreover, the hepatocyte CLint in data set [2] is 51.7 µL/min/1e6 cells; in data set [3], 20.3 µL/min/1e6 cells.

In the case of `C[C@H](Nc1nc(C(=O)N2CC[C@H](F)C2)c2sccc2n1)c1cncc(F)c1` [Example Z225, (2-(((S)-1-(5-Fluoropyridin-3-yl)ethyl)amino)thieno[3,2-d]pyrimidin-4-yl)((S)-3-fluoropyrrolidin-1-yl)methanone], the Ratio on adenosine A2B receptor was found to be 43.99. Also, the pIC50 on adenosine A2B receptor is above 8.00; against adenosine A3 receptor, below 6.30; against adenosine A1 receptor, below 6.30; at adenosine A2A receptor, 6.30 to 7.00. Moreover, the inhibition at 10 µM in data set [1] was 57%. Besides, the hepatocyte CLint came to 21.1 µL/min/1e6 cells in data set [2] and 44.5 µL/min/1e6 cells in data set [3].

As for `CNc1cc2nc(N[C@@H](C)c3cncc(F)c3)nc(C(=O)N3CC[C@@H](O)C3)c2s1` [Example Z224, (2-(((S)-1-(5-Fluoropyridin-3-yl)ethyl)amino)-6-(methylamino)thieno[3,2-d]pyrimidin-4-yl)((R)-3-hydroxypyrrolidin-1-yl)methanone], the Ratio at adenosine A2B receptor stood at 340.19. Besides, the pIC50 on adenosine A2B receptor is above 8.00; against adenosine A3 receptor, 7.00 to 7.30; on adenosine A1 receptor, below 6.30; at adenosine A2A receptor, below 6.30. Also, the inhibition at 10 µM in data set [1] worked out at 52.5%. The values for the hepatocyte CLint in data set [2] and in data set [3] were 4.61 µL/min/1e6 cells and 16.1 µL/min/1e6 cells, respectively.

For `CO[C@H]1CCN(C(=O)c2nc(N[C@@H](C)c3cncc(F)c3)nc3cc(C)sc23)C1` [Example Z301, (2-(((S)-1-(5-Fluoropyridin-3-yl)ethyl)amino)-6-methylthieno[3,2-d]pyrimidin-4-yl)((S)-3-methoxypyrrolidin-1-yl)methanone], on adenosine A2B receptor, the Ratio is reported as 83.47. For the same compound, the pIC50 is above 8.00 at adenosine A2B receptor, 7.00 to 7.30 against adenosine A3 receptor, below 6.30 against adenosine A1 receptor and 6.30 to 7.00 on adenosine A2A receptor. For the same compound, the inhibition at 10 µM in data set [1] was found to be 52%. Moreover, the hepatocyte CLint in data set [2] was determined as 51.7 µL/min/1e6 cells; in data set [3], 23.8 µL/min/1e6 cells.

In the case of `C[C@H](Nc1nc(C(=O)N2CC(O)C2)c2sccc2n1)c1cncc(F)c1` [Example Z198, (S)-(2-((1-(5-Fluoropyridin-3-yl)ethyl)amino)thieno[3,2-d]pyrimidin-4-yl)(3-hydroxyazetidin-1-yl)methanone], the Ratio at adenosine A2B receptor is reported as 52.81. Also, the pIC50 at adenosine A2B receptor was above 8.00; against adenosine A3 receptor, below 6.30; on adenosine A1 receptor it was below 6.30; on adenosine A2A receptor, 6.30 to 7.00. For the same compound, the inhibition at 10 µM in data set [1] was 27%. The hepatocyte CLint in data set [2] stood at 20.6 µL/min/1e6 cells; in data set [3], 6.78 µL/min/1e6 cells.

As to `C[C@H](Nc1nc(C(=O)N2CC[C@H](CO)C2)c2sccc2n1)c1cncc(F)c1` [Example Z294, (2-(((S)-1-(5-Fluoropyridin-3-yl)ethyl)amino)thieno[3,2-d]pyrimidin-4-yl)((S)-3-(hydroxymethyl)pyrrolidin-1-yl)methanone], the Ratio on adenosine A2B receptor is reported as 84.08. For the same compound, the pIC50 at adenosine A2B receptor is above 8.00; against adenosine A3 receptor it was below 6.30; against adenosine A1 receptor, below 6.30; at adenosine A2A receptor, 6.30 to 7.00. In addition, the inhibition at 10 µM in data set [1] was determined as 37.6%. The results for the hepatocyte CLint in data set [2] and in data set [3] were 17.2 µL/min/1e6 cells and 15.6 µL/min/1e6 cells, respectively.

As for `Cc1cc2nc(N[C@@H](C)c3cccnc3)nc(C(=O)N3CC[C@H](O)C3)c2s1` [Example Z297, ((S)-3-Hydroxypyrrolidin-1-yl)(6-methyl-2-(((S)-1-(pyridin-3-yl)ethyl)amino)thieno[3,2-d]pyrimidin-4-yl)methanone], the Ratio at adenosine A2B receptor is on record as 227.82. Further, the pIC50 at adenosine A2B receptor was above 8.00; at adenosine A3 receptor, below 6.30; on adenosine A1 receptor it was below 6.30; on adenosine A2A receptor, below 6.30. The hepatocyte CLint in data set [2] worked out at 22.6 µL/min/1e6 cells; in data set [3], 3.47 µL/min/1e6 cells.

As to `Cc1cc2nc(N[C@@H](C)c3cncc(F)c3)nc(C(=O)N3CC(O)C3)c2s1` [Example Z267, (S)-(2-((1-(5-Fluoropyridin-3-yl)ethyl)amino)-6-methylthieno[3,2-d]pyrimidin-4-yl)(3-hydroxyazetidin-1-yl)methanone], at adenosine A2B receptor, the Ratio is reported as 105.81. The pIC50 on adenosine A2B receptor is above 8.00; against adenosine A3 receptor, 7.00 to 7.30; at adenosine A1 receptor, 7.00 to 7.30; at adenosine A2A receptor, 7.00 to 7.30. The values for the hepatocyte CLint in data set [2] and in data set [3] were 45.9 µL/min/1e6 cells and 9.44 µL/min/1e6 cells, respectively.

For the compound `Cc1cc2nc(N[C@@H](C)c3cncc(F)c3)nc(C(=O)N3CC[C@@H](O)C3)c2s1` [Example Z250, (2-(((S)-1-(5-Fluoropyridin-3-yl)ethyl)amino)-6-methylthieno[3,2-d]pyrimidin-4-yl)((R)-3-hydroxypyrrolidin-1-yl)methanone], the Ratio at adenosine A2B receptor was found to be 179.59. The pIC50 is above 8.00 on adenosine A2B receptor, below 6.30 against adenosine A3 receptor, below 6.30 against adenosine A1 receptor and 6.30 to 7.00 at adenosine A2A receptor. The hepatocyte CLint in data set [2] came to 23.9 µL/min/1e6 cells; in data set [3] it was 11.9 µL/min/1e6 cells.

`CO[C@@H]1CCN(C(=O)c2nc(N[C@@H](C)c3cncc(F)c3)nc3ccsc23)C1` [Example Z251, (2-(((S)-1-(5-Fluoropyridin-3-yl)ethyl)amino)thieno[3,2-d]pyrimidin-4-yl)((R)-3-methoxypyrrolidin-1-yl)methanone]: the Ratio at adenosine A2B receptor was determined as 19.74. Besides, the pIC50 at adenosine A2B receptor is above 8.00; at adenosine A3 receptor it was below 6.30; against adenosine A1 receptor, below 6.30; at adenosine A2A receptor, 6.30 to 7.00. Besides, the inhibition at 10 µM in data set [1] came out at 49.1%.
